The values that follow come from US6355669B1, “Retinoic acid agonists as preventive and therapeutic agents for nephritis” (Eisai Co., Ltd., priority 1997, dated 2002).

The subject of test [1] is anti-dinitrophenyl (DNP) IgG2a antibody titer. Briefly: Mouse model producing antibody (anti-DNP IgG2a antibody titer in serum, ELISA). In kind it is in vivo, BALB/c mice. To be noted: for effect on anti-DNP IgG2a: dose 0.1 mg/kg oral once every day for 10 days, 10th day after immunization. As for the experimental part: BALB/c mice were immunized by administering dinitrophenylated keyhole limpet hemocyanin (DNP-KLH) as antigen intraperitoneally into them in a dose of 100 μg/mouse along with Freund's complete adjuvant. On the 10th day after the day on which the mice were immunized, blood was collected from the orbital venous plexus of the animals under anesthesia with ether and examined for anti-dintrophenyl (DNP) IgG2a antibody titer in serum by the ELISA method.
The test compounds B, E, F, G and H were suspended in 0.5% aqueous methyl cellulose solution and orally administered into the animals once every day for 10 days from the day when the animals were immunized with DNP-KLH. The medium was administered into the control group.
(In an ELISA, binding on a coated surface is turned into a signal by an enzyme label.)

Test [2] concerns accelerated Masugi nephritis. Put plainly: Rat model with accelerated Masugi nephritis (proteins excreted in urine for 24 hours). In kind it is in vivo, Sprague-Dawley strain rats. The following applies: oral once every day, compared with the control group. Here is the method:
Sprague-Dawley strain rats were immunized by subcutaneously administering rabbit γ-globulin in a dose of 4 mg/rat along with Freund's complete adjuvant into the bottoms of their both hind legs. On the 5th day after the rats were immunized, 1 ml of anti-rat glomerular basement membrane rabbit serum diluted 6- or 8-fold was administered via tail veins into the animals. On the 8th day, the rats were forced to be orally administered 8 ml sterilized water and then placed in a metabolism cage, and their urine was collected for 24 hours during which the animals were allowed neither food nor water. As the indicator of the model with accelerated Masugi nephritis, the amount of proteins excreted in urine for 24 hours was used.
The medium was administered into the control group.

For test [3], the target named is T1, human RARβ (Homo sapiens, UniProt P10826).
T1 sequence (P10826 1-455): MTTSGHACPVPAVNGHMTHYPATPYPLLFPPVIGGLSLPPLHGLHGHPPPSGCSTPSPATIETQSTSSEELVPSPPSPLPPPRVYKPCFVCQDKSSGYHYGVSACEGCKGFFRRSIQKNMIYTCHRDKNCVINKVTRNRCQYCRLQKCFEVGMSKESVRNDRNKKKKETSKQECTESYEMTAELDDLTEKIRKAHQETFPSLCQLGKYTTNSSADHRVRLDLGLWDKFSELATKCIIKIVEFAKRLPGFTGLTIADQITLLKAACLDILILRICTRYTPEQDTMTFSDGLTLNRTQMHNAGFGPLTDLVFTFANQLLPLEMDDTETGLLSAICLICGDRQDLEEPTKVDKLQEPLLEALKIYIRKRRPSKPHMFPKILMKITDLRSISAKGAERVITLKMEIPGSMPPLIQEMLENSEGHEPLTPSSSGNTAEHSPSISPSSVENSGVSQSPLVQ
Briefly: RAR binding assay (inhibition of 3H-all-trans-retinoic acid binding), RAR-β. To be noted: nuclear extract of BHK cells expressing human RARβ, read-out: Receptor binding assay IC50 (nM) RAR-β. The arrangement: expressed in transfected cells. Here is the method: (§1) Cells constantly expressing RARα, β and γ proteins were prepared by introducing human RARα, β and γ genes into BHK (baby hamster kidney) cells. A nuclear fraction of these cells was used to construct an experimental system for measuring the specific binding of all-trans-retinoic acid to RAR, and in this experimental system, the ability of each test compound to bind to […] was examined by measuring the degree of inhibition of binding. Further, the ability of each test compound to bind to each receptor subtype was compared to determine the selectivity of the compound for RAR subtype.
(§2) 5×10^8 BHK cells having the RAR gene introduced into them were suspended in 15 ml solution A (5 mM sodium phosphate (pH 7.4), 10 mM monothioglycerol, 10% (v/v) glycerol, 1 mM phenyl methyl sulfonyl fluoride (PMSF), 10 μg/ml aprotinin, 25 μg/ml leupeptin), then homogenized therein and centrifuged, and the supernatant was removed. The resulting pellet was suspended in 15 ml buffer B (10 mM Tris-HCl (pH 8.5), 10 mM monothioglycerol, 10% (v/v) glycerol, 1 mM PMSF, 10 μg/ml aprotinin, 25 μg/ml leupeptin, 0.4 M potassium chloride), then left at 4° C. for 1 hour and ultracentrifuged at 100,000×g, 4° C. for 1 hour. The resulting supernatant was frozen and stored as a nuclear extract fraction at −80° C. until use (Methods in Enzymology, 189, 248).
(§3) 180 μl of the extract fraction and 10 μl diluted solution of all-trans-retinoic acid or a test compound were added to each well on a 96-well plate made of polypropylene, and further 10 μl of 10 nM ^3H-all-trans-retinoic acid was added thereto and left at 4° C. for 16 hours. 3% charcoal-0.3% dextran solution was added to the reaction solution and centrifuged whereby free ^3H-all-trans-retinoic acid was separated, and the count in the supernatant was determined by a scintillation counter. The count when a 500-fold excess of non-labeled all-trans-retinoic acid was added was subtracted as unspecific binding from the value obtained, to determine the amount of each compound binding specifically to RAR.
(§4) The concentration (IC50) of each compound at which the binding of ^3H-all-trans-retinoic acid was inhibited by 50% was determined and the results are shown in Tables 3-1 and 3-2.

For test [4], the target named is T2, human RARγ (Homo sapiens, UniProt P13631).
T2 sequence (P13631 1-454): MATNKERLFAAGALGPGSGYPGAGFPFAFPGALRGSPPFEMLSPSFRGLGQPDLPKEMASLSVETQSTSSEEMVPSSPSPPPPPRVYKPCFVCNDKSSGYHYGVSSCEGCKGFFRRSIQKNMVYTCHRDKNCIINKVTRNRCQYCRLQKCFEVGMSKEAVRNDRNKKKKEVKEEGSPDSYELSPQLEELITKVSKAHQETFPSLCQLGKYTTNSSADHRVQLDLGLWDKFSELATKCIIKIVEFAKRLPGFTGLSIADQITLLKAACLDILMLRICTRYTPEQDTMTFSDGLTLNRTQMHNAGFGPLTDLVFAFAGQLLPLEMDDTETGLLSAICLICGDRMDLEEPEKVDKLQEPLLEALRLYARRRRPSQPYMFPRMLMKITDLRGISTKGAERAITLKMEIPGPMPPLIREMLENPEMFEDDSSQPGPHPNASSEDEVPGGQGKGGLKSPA
Briefly: RAR binding assay (inhibition of 3H-all-trans-retinoic acid binding), RAR-γ. On the set-up: expressed in transfected cells. The following applies: nuclear extract of BHK cells expressing human RARγ, read-out: Receptor binding assay IC50 (nM) RAR-γ. As for the experimental part:
as §1, §2, §3, §4

The target of test [5] is T3, human RARα (Homo sapiens, UniProt P10276).
T3 sequence (P10276 1-462): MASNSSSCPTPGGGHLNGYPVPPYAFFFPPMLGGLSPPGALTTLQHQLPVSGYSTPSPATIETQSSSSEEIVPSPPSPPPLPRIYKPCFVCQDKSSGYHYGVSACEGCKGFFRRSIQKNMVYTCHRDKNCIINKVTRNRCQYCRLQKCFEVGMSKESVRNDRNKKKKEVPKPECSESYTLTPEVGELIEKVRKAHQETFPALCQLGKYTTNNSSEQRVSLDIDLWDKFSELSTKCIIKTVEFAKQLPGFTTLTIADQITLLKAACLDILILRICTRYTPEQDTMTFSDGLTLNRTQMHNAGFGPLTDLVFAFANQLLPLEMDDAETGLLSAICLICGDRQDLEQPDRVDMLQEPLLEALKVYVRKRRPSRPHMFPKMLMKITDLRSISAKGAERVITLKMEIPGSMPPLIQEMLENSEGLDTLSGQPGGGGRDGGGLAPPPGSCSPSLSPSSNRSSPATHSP
Briefly: RAR binding assay (inhibition of 3H-all-trans-retinoic acid binding), RAR-α. To be noted: nuclear extract of BHK cells expressing human RARα, read-out: Receptor binding assay IC50 (nM) RAR-α. The arrangement: expressed in transfected cells. As for the experimental part:
as §1, §2, §3, §4

On to `CC1(C)CCCc2ncc(-c3ccc(-c4ccc(C(=O)O)cc4)[nH]3)nc21` [Compound E, 4-{2-{5-[2-(8,8-dimethyl-5,6,7,8-tetrahydroquinoxalynyl)]pyrrolyl}}benzoic acid], for which, in test [1], the “effect on anti-DNP IgG2a” value is “significantly inhibited”. In addition, the “Degree of Inhibition of Albuminuria (%)” value in test [2] (dose 1.0 mg/kg, 1 mg/kg) was 85.8%.

The term IC50 denotes the concentration that gives 50% inhibition. As for `COCc1cc2c(cc1-c1ccc(-c3ccc(C(=O)O)cc3)[nH]1)C(C)(C)CCC2(C)C` [drawing 18], the values for the IC50 in test [3], in test [4] and in test [5] were 230 nM, 83 nM and 10 nM, respectively.

For `C[Si](C)(C)c1cc(C(=O)Nc2ccc(C(=O)O)cc2)cc([Si](C)(C)C)c1` [Compound I, 4-{[(3,5-bistrimethylsilylphenyl)carbonyl]amino}benzoic acid], the “Degree of Inhibition of Albuminuria (%)” value in test [2] (dose 1.0 mg/kg, 1 mg/kg) was 89.4%.

As to `CC1CCCN(C)c2ncc(-c3ccc(-c4ccc(C(=O)O)cc4)[nH]3)nc21` (centres unmarked) [drawing 16], the IC50 in test [3] is 58 nM; in test [4], 130 nM; in test [5], 1 nM.

Regarding `COCc1cc2c(cc1-c1ccc(-c3ccc(C(=O)O)cc3)[nH]1)C(C)(C)CCC2(C)C` [Compound H, 4-{2-[5-(3-methoxymethyl-5,6,7,8-tetrahydro-5,5,8,8-tetramethylnaphthalene-2-yl)pyrrolyl}}benzoic acid], the “effect on anti-DNP IgG2a” value in test [1] is “showed a tendency to inhibit”. For the same compound, in test [2] (dose 0.3 mg/kg, 0.3 mg/kg), the “Degree of Inhibition of Albuminuria (%)” value was 61.3%.

`O=C(O)c1ccc(-c2ccc(-c3cc4c(Cl)ccc(Cl)c4o3)[nH]2)cc1`: the IC50 in test [4] was > 500 nM; in test [5], 1 nM.

`C[Si](C)(C)c1cc(C(=O)Nc2ccc(C(=O)O)cc2)cc([Si](C)(C)C)c1` [drawing 19]: the results for the IC50 in test [3], in test [4] and in test [5] were > 500 nM, > 500 nM and 6.4 nM, respectively.

For `CCOC(=O)/C=C(C)/C=C/C=C(C)/C=C/c1c(C)cc(OC)c(C)c1C` [etretinate, reference compound], in test [1] (50 mg/kg, administered in the same manner as the test compounds), the “effect on production of anti-DNP antibody” value was “showed a tendency to inhibit”.

Consider `Cc1ccc(C)c2oc(-c3ccc(-c4ccc(C(=O)O)cc4)[nH]3)cc12` [drawing 8], for which the figures for the IC50 in test [3], in test [4] and in test [5] were 340 nM, > 500 nM and 1.4 nM, respectively.

Regarding `CC1(C)CCC(C)(C)c2nc(-c3ccc(-c4ccc(C(=O)O)cc4)[nH]3)cnc21` [drawing 14], the results for the IC50 in test [3], in test [4] and in test [5] were 56 nM, 140 nM and 0.6 nM, respectively.

`O=C(O)c1ccc(-c2ccc(-c3cc4c(C(F)(F)F)ccc(F)c4o3)[nH]2)cc1` [drawing 11]: the IC50 in test [3] amounted to 107 nM; in test [4], 195 nM; in test [5], 0.6 nM.

Consider `Cc1ccc(C)c2c(F)c(-c3ccc(-c4ccc(C(=O)O)cc4)[nH]3)oc12` [drawing 12], for which the IC50 in test [3] is 49 nM; in test [4], 225 nM; in test [5], < 0.5 nM.

Turning to `O=C(O)c1ccc(-c2ccc(-c3cc4c(F)ccc(Cl)c4o3)[nH]2)cc1`, the values for the IC50 in test [3], in test [4] and in test [5] were > 500 nM, > 500 nM and 3.8 nM, respectively.

As for `CCc1ccc(C)c2cc(-c3ccc(-c4ccc(C(=O)O)cc4)[nH]3)oc12` [drawing 13], the values for the IC50 in test [3], in test [4] and in test [5] were 160 nM, 270 nM and < 0.5 nM, respectively.

Take `CC1CCCN(C)c2ccc(-c3ccc(-c4ccc(C(=O)O)cc4)[nH]3)cc21` (centres unmarked) [Compound F, 4-{2-{5-[7-(1,5-dimethyl-2,3,4,5-tetrahydro-1H-benzazepinyl)]pyrrolyl}}benzoic acid]: in test [1], the “effect on anti-DNP IgG2a” value was “significantly inhibited”. For the same compound, the “Degree of Inhibition of Albuminuria (%)” value in test [2] (dose 1.0 mg/kg, 1 mg/kg) worked out at 71.1%.

`CCn1nc(-c2ccc(-c3ccc(C(=O)O)cc3)[nH]2)cc1C(C)C` [G]: the “effect on anti-DNP IgG2a” value in test [1] is “significantly inhibited”.
